Measured values taken from ChEMBL document CHEMBL5154780, “Target Fishing Reveals a Novel Mechanism of 1,2,4-Oxadiazole Derivatives Targeting Rpn6, a Subunit of 26S Proteasome” (J Med Chem, 2022).
Calls of active or inactive are those of the source. No cut-off for these calls is given here. Where a SMILES comes first, the peptide text is derived from it. The star is where a group is joined. Cbz = O=C(OCc1ccccc1)*

Assays:
[1] = test system: HepG2-ARE-C8; test: Activation of Nrf2-ARE pathway in human HepG2-ARE-C8 cells assessed as fold upregulation of ARE-inducing luciferase activity at 10 uM measured after 24 hrs by luciferase reporter gene assay; type: cell-based; details: filed as activator
[2] = test system: HepG2-ARE-C8; test: Activation of Nrf2-ARE pathway in human HepG2-ARE-C8 cells assessed as fold upregulation of ARE-inducing luciferase activity at 20 uM measured after 24 hrs by luciferase reporter gene assay; type: cell-based; details: filed as activator
[3] = test system: HepG2-ARE-C8; test: Activation of Nrf2-ARE pathway in human HepG2-ARE-C8 cells assessed as fold upregulation of ARE-inducing luciferase activity at 40 uM measured after 24 hrs by luciferase reporter gene assay; type: cell-based; details: filed as activator
[4] = test system: HepG2-ARE-C8; test: Activation of Nrf2-ARE pathway in human HepG2-ARE-C8 cells assessed as fold upregulation of ARE-inducing luciferase activity at 80 uM measured after 24 hrs by luciferase reporter gene assay; type: cell-based; details: filed as activator
[5] = test system: HepG2-ARE-C8; test: Activation of Nrf2-ARE pathway in human HepG2-ARE-C8 cells assessed as fold upregulation of ARE-inducing luciferase activity at 160 uM measured after 24 hrs by luciferase reporter gene assay; type: cell-based; details: filed as activator
[6] = molecular target: T1, Nuclear factor erythroid 2-related factor 2 (Rattus norvegicus) (UniProt O54968); test: Activation of Nrf2 in rat PC-12 cells assessed as upregulation of HO-1 protein expression measured after 24 hrs by Western blot analysis; type: cell-based; details: filed as activator, dose 10-40 µM, DDE = dose-dependent effect
T1 sequence (whole entry): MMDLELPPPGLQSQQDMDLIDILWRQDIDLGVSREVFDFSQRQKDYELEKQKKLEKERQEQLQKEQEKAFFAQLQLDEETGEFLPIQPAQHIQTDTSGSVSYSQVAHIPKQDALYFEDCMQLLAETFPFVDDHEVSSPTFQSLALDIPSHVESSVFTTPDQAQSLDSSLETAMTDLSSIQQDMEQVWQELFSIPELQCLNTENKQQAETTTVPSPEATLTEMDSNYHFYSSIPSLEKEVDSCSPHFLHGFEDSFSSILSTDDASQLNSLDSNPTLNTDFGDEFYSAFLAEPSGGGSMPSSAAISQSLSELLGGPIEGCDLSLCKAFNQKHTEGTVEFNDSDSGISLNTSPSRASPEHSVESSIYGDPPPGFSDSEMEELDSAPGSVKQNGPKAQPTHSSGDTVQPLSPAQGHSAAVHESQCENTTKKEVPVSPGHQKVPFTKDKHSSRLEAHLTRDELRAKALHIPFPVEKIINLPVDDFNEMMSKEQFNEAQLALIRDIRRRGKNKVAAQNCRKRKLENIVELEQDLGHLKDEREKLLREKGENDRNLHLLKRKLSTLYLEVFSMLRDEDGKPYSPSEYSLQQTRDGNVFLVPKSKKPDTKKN

[7] = molecular target: T1, Nuclear factor erythroid 2-related factor 2 (Rattus norvegicus); test: Activation of Nrf2 in rat PC-12 cells assessed as upregulation of NQO1 protein expression measured after 24 hrs by Western blot analysis; type: cell-based; details: filed as activator, dose 10-40 µM, DDE = dose-dependent effect
[8] = molecular target: T1, Nuclear factor erythroid 2-related factor 2 (Rattus norvegicus); test: Activation of Nrf2 in rat PC-12 cells assessed as upregulation of Nrf2 protein expression measured after 24 hrs by Western blot analysis; type: cell-based; details: filed as activator, dose 10-40 µM, DDE = dose-dependent effect
[9] = test system: PC-12; test: Cytoprotective activity against H2O2-induced oxidative damage in rat PC-12 assessed as increase in cell viability preincubated for 24 hrs followed by H2O2 stimulation for 3 hrs by MTT assay; type: functional, cell-based; details: dose 5-80 µM, DDE = dose-dependent effect
[10] = test system: THP-1; test: Antiinflammatory activity in PMA-differentiated and LPS-stimulated human THP-1 cell model assessed as inhibition of NLRP3 inflammasome-driven IL-1beta production at 15 uM incubated for 24 hrs followed by LPS stimulation for 3 hrs and ATP addition for 1 hr by ELISA; type: functional; parameters: scale not given: the % may be the effect or the level left
[11] = test system: THP-1; test: Antiinflammatory activity in PMA-differentiated and LPS-stimulated human THP-1 cell model assessed as inhibition of NLRP3 inflammasome-driven IL-1beta production at 30 uM incubated for 24 hrs followed by LPS stimulation for 3 hrs and ATP addition for 1 hr by ELISA; type: functional; parameters: scale not given: the % may be the effect or the level left
[12] = test system: THP-1; test: Antiinflammatory activity in PMA-differentiated and LPS-stimulated human THP-1 cell model assessed as inhibition of NLRP3 inflammasome-driven IL-1beta production at 45 uM incubated for 24 hrs followed by LPS stimulation for 3 hrs and ATP addition for 1 hr by ELISA; type: functional; parameters: scale not given: the % may be the effect or the level left
[13] = Cytotoxicity against human THP-1 cells assessed as reduction in cell viability measured after 24 hrs by MTT assay; type: toxicity, cell-based
[14] = molecular target: 26S proteasome non-ATPase regulatory subunit 11 (Homo sapiens, UniProt O00231); test: Binding affinity to biotinylated recombinant Rpn6 (unknown origin) assessed as dissociation constant by biolayer interferometry analysis
Chain of 26S proteasome non-ATPase regulatory subunit 11 (O00231 whole entry): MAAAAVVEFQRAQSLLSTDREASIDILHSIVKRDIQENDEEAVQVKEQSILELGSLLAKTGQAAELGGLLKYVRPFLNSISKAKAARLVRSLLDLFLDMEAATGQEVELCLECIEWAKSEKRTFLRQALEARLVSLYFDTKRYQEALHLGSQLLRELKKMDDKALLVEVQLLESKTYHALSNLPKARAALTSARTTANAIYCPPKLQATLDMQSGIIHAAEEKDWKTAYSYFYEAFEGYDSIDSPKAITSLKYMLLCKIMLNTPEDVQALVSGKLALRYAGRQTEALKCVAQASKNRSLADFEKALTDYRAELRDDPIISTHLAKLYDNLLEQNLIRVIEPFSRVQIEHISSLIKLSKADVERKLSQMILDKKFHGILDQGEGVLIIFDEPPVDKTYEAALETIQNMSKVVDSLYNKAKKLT

[15] = molecular target: 26S proteasome non-ATPase regulatory subunit 11 (Rattus norvegicus) (UniProt F1LMZ8); test: Binding affinity to biotinylated recombinant Rpn6 in rat PC-12 cells at 100 to 200 uM incubation for overnight by pull-down assay based SDS-PAGE analysis; type: cell-based; details: filed as activator, dose 100-200 µM, DDE = dose-dependent effect
Chain of 26S proteasome non-ATPase regulatory subunit 11 (Rattus norvegicus) (F1LMZ8 whole entry): as the sequence (O00231 whole entry) above

[16] = molecular target: T1, Nuclear factor erythroid 2-related factor 2 (Rattus norvegicus); test: Activation of Nrf2 in rat PC-12 cells assessed as reduction of Nrf2 in cytoplasm at 20 uM measured after 4 hrs by western blot analysis; type: cell-based; details: filed as activator
[17] = molecular target: T1, Nuclear factor erythroid 2-related factor 2 (Rattus norvegicus); test: Activation of Nrf2 in rat PC-12 cells assessed as upregulation of Nrf2 in nucleus at 20 uM measured after 4 hrs by western blot analysis; type: cell-based; details: filed as activator
[18] = molecular target: T1, Nuclear factor erythroid 2-related factor 2 (Rattus norvegicus); test: Inhibition of Nrf2 degradation in rat PC-12 cells assessed as accumulation of ubiquitinated Nrf2 at 10 uM incubated for 6 hrs by Western blot analysis; type: cell-based
[19] = test system: PC-12; test: Induction of cell membrane permeability in rat PC-12 cells at 60 uM measured after 10 hrs by fluorescence microscopic analysis; type: cell-based
[20] = molecular target: 26S proteasome non-ATPase regulatory subunit 11 (Rattus norvegicus) (UniProt F1LMZ8); test: Binding affinity to recombinant Rpn6 in rat PC-12 cells at 60 uM measured after 12 hrs by DAPI staining based fluorescence microscope assay; type: cell-based; details: filed as activator
[21] = molecular target: T1, Nuclear factor erythroid 2-related factor 2 (Rattus norvegicus); test: Inhibition of Nrf2 degradation in rat PC-12 cells assessed as accumulation of ubiquitinated Nrf2 at 40 uM incubated for 6 hrs by Western blot analysis; type: cell-based
[22] = molecular target: T1, Nuclear factor erythroid 2-related factor 2 (Rattus norvegicus); test: Inhibition of Nrf2 degradation in rat PC-12 cells assessed as accumulation of ubiquitinated Nrf2 at 40 uM incubated for 6 hrs in presence of proteasome inhibitor MG132 by Western blot analysis; type: cell-based
[23] = molecular target: T1, Nuclear factor erythroid 2-related factor 2 (Rattus norvegicus); test: Inhibition of Nrf2 degradation in rat PC-12 cells assessed as increase in ubiquitinated Nrf2 at 40 uM incubated for 6 hrs by co-immunoprecipitation based Western blot analysis; type: cell-based
[24] = molecular target: T1, Nuclear factor erythroid 2-related factor 2 (Rattus norvegicus); test: Inhibition of Nrf2 degradation in rat PC-12 cells assessed as increase in ubiquitinated Nrf2 at 40 uM incubated for 6 hrs in presence of proteasome inhibitor MG132 by co-immunoprecipitation based Western blot analysis; type: cell-based

SMILES	fold change (FC) [1]	fold change (FC) [2]	fold change (FC) [3]	fold change (FC) [4]	fold change (FC) [5]	Activity [10] [%]	Activity [11] [%]	Activity [12] [%]	IC50 at 24 h [13] [µM]	further results
Cc1ccc(-c2noc(-c3ccc(F)cc3NC(=O)CCCCCNC(=O)CCCC[C@@H]3SC[C@@H]4NC(=O)N[C@@H]43)n2)cn1	4.96	5.59	6.69	7.1	11.8	33.81	64.61	97.72	> 100	Activity [6]: Dde; Activity [7]: Dde; Activity [8]: Dde; Activity [9]: Dde; Kd [14]: 1.38 µM; Activity [15]: Dde; Activity [16]: Active; Activity [17]: Active
CC(C)C[C@@H](C=O)NC(=O)[C@H](CC(C)C)NC(=O)[C@H](CC(C)C)NC(=O)OCc1ccccc1 (Cbz-Leu-Leu-Leu-aldehyde)	–	–	–	–	–	–	–	–	–	Activity [18]: Active
CC(C)(C)c1cc(O)ccc1O [E319]	2.94	3.13	2.98	12	15.9	50.88	58.58	98.29	> 100	–
Cc1ccc(-c2noc(-c3ccc(F)cc3NC(=O)CCCCCNC(=S)Nc3ccc4c(c3)C(=O)OC43c4ccc(O)cc4Oc4cc(O)ccc43)n2)cn1	2.62	2.28	2.3	2.71	6.42	67.9	77.63	89.34	> 100	Activity [19]: Active; Activity [20]: Active
O=C(O)CCCC[C@@H]1SC[C@@H]2NC(=O)N[C@@H]21	1.55	1.12	1.18	1.45	1.55	–	–	–	–	–
CCNC(=O)CCCCCNC(C)=O	1.17	1.17	1.41	1.22	1.22	-2.73	3.52	2.89	> 100	–
Fc1ccc(-c2nc(-c3ccc4nc[nH]c4c3)no2)cc1	4.53	4.19	7.5	19.3	31.5	87.24	98.39	102.6	> 100	Kd [14]: 8.53 µM; Activity [21]: Active; Activity [22]: Active; Activity [23]: Active; Activity [24]: Active
Cc1ccc(-c2noc(-c3ccc(F)cc3)n2)cn1	2.08	2.75	7.14	31.7	29.6	49.86	53.91	85.46	> 100	Activity [6]: Dde; Activity [7]: Dde; Activity [8]: Dde; Activity [16]: Active; Activity [17]: Active
